# Laboratory results published in article PMC8808171, “Nonselective TRPC channel inhibition and suppression of aminoglycoside-induced premature termination codon readthrough by the small molecule AC1903” (The Journal of Biological Chemistry, 2022).
# Experiments:
# [1] = system: WT HEK 293 cells; test: Carbachol-mediated [Ca2+]i response in WT HEK 293 cells; format: cell-based; settings: carbachol (100 μM), n/N = 1/6
# Method: To test the effect of AC1903 on TRPC4 channels, we initially attempted to use carbachol to activate TRPC4:C4 channels, in line with patch-clamp experiments reported by Zhou et al. ([29]). […] Therefore, we used the selective TRPC1/4/5 activator EA and the physiological TRPC4/5 activator S1P instead.
# [Ca^2+]i recordings were carried out using the ratiometric Ca^2+ dye Fura-2. 24 h prior to experiments, cells were plated either onto black, clear bottom poly-D-lysine-coated 96-well plates (HEK cells) or clear 96-well plates (A498 cells, CHO cells) at 50,000 cells per well (HEK cells) or 20,000 cells per well (A498 cells, CHO cells). For tetracycline-inducible HEK T-REx cells, protein expression was induced with tetracycline (TRPC channels: 1 μg ml^−1; hPiezo1: 100 ng ml^−1) at this point. To load cells with the Fura-2 dye, media was removed and cells were incubated with standard bath solution (SBS) containing 2 μM Fura-2 acetoxymethyl ester (Fura-2 AM; Thermo Fisher Scientific) and 0.01% pluronic acid for 1 h at 37 °C. SBS contained (in mM): NaCl 130, KCl 5, glucose 8, HEPES 10, MgCl2 1.2 and CaCl2 1.5. After this incubation, cells were washed twice with fresh SBS. […]
# Inhibition of G418-induced premature stop codon readthrough
# Figure S7. […] Responses were calculated at 70-80 s compared to [Ca2+]i at baseline (0-55 s). […]
# [2] = molecular target: T1, TRPC4 (Homo sapiens, UniProt Q9UBN4); test: Whole-cell patch-clamp recordings of EA-activated TRPC4 currents in HEK T-REx cells; format: cell-based; settings: EA 30 nM
# T1 construct: expressed in transfected cells; host or cells: HEK T-REx (tetracycline-induced)
# Method: B) Representative current–voltage relationship for one (Tet+) HEK T-Rex cell expressing TRPC4, showing current after activation by EA (30 nM) and subsequent inhibition by addition of AC1903 (10 μM). C, quantified data from experiments represented by (A) (scatter plots showing current amplitudes at +100 mV (black circles) or −100 mV (white circles) from three independent experiments; bars represent mean ± SD; n = 3). ∗ indicates statistically significant difference between samples according to paired t test (p < 0.05). EA, (-)-englerin A; TRPC, transient receptor potential canonical.
# For electrophysiology experiments, cells were plated at a low density of 20 to 30% onto round coverslips (13 mm diameter or 5 × 5 mm), and TRPC4 expression in HEK T-REx was induced with 1 μg ml^−1 tetracycline 24 h before experimentation. Experiments were carried out at room temperature. […] The patch-clamp currents were recorded using an Axopatch 200B amplifier, digitized by a Digidata 1440 and recorded to a computer using pCLAMP10 (Molecular Devices). The data were filtered at 1 kHz and analyzed offline using Clampfit 10.7 software and Origin 2019b software (OriginLab). […]
# Inhibition of G418-induced premature stop codon readthrough […]
# T1 sequence (Q9UBN4 1-893 isoform Q9UBN4-2): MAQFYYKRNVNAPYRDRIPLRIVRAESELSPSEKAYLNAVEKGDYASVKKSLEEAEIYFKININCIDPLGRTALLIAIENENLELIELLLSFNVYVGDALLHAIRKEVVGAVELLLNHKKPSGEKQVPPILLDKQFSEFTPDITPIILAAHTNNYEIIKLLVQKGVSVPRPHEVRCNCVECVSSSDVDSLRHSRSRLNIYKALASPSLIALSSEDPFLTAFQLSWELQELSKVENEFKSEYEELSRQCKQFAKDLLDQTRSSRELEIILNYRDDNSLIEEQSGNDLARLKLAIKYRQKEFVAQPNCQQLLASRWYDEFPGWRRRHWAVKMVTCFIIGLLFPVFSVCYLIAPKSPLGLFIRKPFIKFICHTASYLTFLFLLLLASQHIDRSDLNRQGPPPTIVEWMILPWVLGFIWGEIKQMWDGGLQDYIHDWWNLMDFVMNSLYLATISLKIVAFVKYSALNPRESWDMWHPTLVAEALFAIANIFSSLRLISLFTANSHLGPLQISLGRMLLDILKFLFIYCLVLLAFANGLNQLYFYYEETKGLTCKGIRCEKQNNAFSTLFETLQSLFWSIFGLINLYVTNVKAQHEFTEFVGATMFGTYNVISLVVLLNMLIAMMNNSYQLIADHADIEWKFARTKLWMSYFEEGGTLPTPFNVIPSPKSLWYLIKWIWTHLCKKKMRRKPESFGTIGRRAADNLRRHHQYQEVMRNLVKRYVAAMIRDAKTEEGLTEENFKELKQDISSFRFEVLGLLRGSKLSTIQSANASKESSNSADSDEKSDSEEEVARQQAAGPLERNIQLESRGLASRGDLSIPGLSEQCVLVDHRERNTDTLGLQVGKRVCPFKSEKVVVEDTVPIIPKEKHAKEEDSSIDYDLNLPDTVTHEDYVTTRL
smiles,measurement,setting,value
c1ccc(Cn2c(NCc3ccco3)nc3ccccc32)cc1 [AC1903],IC50,[1],20 µM
same,inhibition of EA-activated currents,"[2]; 10 μM AC1903, whole-cell patch clamp",fully and reversibly inhibited
same,"inhibition of EA-activated TRPC4 currents, cumulative addition",[2]; AC1903 0.3–30 μM,concentration-dependent inhibition
